Reference: publication PMC12090182, “Repurposing of the RIPK1-Selective Benzo[1,4]oxazepin-4-one Scaffold for the Development of a Type III LIMK1/2 Inhibitor” (ACS Chemical Biology, 2025)
Read-outs that look alike come from different tables or passages of the source.

Tested on: U2OS cells
Type: cell-based
Details: U2OS
Protocol: To assess the influence on cell health, a high-content screening in living cells called the multiplex high-content assay, as described previously by Tjaden et al., was performed.[38] In brief, HEK293T (ATCC CRL-1573) and U2OS (ATCCHTB-96) were cultured in DMEM plus L-glutamine (high glucose) supplemented by 10% FBS (Gibco) and penicillin/streptomycin (Gibco). MRC-9 fibroblasts ([…]) were cultured in EMEM plus L-glutamine supplemented by 10% FBS (Gibco) and penicillin/streptomycin (Gibco). Cells were seeded at a density of 1250 cells per well in a 384-well plate in a culture medium (cell culture microplate, PS, f-bottom, μClear, 781091, Greiner), with a volume of 50 μL per well. All outer wells were filled with 100 μL of PBS buffer (Gibco). […] The cell shape and fluorescence were measured before treatment and 12, 24, and 48 h after compound treatment using the CQ1 high-content confocal microscope (Yokogawa, Musashino, Japan). […] The compounds were tested at 1 and 10 μM, respectively. Acquired images of the cells were processed using Yokogawa CellPathfinder software (v3.04.02.02). […] Results were normalized to cells exposed to 0.1% DMSO. All compounds were tested in biological duplicates, and SEM (standard error of mean) was calculated of biological duplicates.

Compound: CN1C(=O)[C@@H](N2CCc3c(nn(Cc4ccccc4)c3C(N)=O)C2=O)COc2cc(Cl)ccc21 [Compound 10, (S)-2-benzyl-6-(8-chloro-5-methyl-4-oxo-2,3,4,5-tetrahydrobenzo[b][1,4]oxazepin-3-yl)-7-oxo-4,5,6,7-tetrahydro-2H-pyrazolo[3,4-c]pyridine-3-carboxamide]
- Cell count normalized to cells treated with DMSO control (1 µM, 0 h, replicate 1): 1.139
- Cell count per well (1 µM, 0 h, replicate 1): 237
- Population Fragmented Nuclei (%) (1 µM, 0 h, replicate 1): 37.05%
- Population Healthy Nuclei (%) (1 µM, 0 h, replicate 1): 52.23%
- Population Pyknosed Nuclei (%) (1 µM, 0 h, replicate 1): 10.71%
- Population apoptotic cell (%) (1 µM, 0 h, replicate 1): 66.67%
- Population cell that influence microtubule strucutre (%) (1 µM, 0 h, replicate 1): 2.56%
- Population with increased mitochondrial mass (%) (1 µM, 0 h, replicate 1): 0.85%
- Population with membrane disruption (%) (1 µM, 0 h, replicate 1): 5.98%
- Cell count normalized to cells treated with DMSO control (1 µM, 0 h, replicate 2): 0.8633
- Cell count per well (1 µM, 0 h, replicate 2): 74
- Population Fragmented Nuclei (%) (1 µM, 0 h, replicate 2): 16.44%
- Population Healthy Nuclei (%) (1 µM, 0 h, replicate 2): 79.45%
- Population Pyknosed Nuclei (%) (1 µM, 0 h, replicate 2): 4.11%
- Population apoptotic cell (%) (1 µM, 0 h, replicate 2): 33.33%
- Population cell that influence microtubule strucutre (%) (1 µM, 0 h, replicate 2): 1.72%
- Population with increased mitochondrial mass (%) (1 µM, 0 h, replicate 2): 1.72%
- Population with membrane disruption (%) (1 µM, 0 h, replicate 2): 3.45%
- Cell count normalized to cells treated with DMSO control (1 µM, 12 h, replicate 1): 1.055
- Cell count per well (1 µM, 12 h, replicate 1): 279
- Population Fragmented Nuclei (%) (1 µM, 12 h, replicate 1): 23.90%
- Population Healthy Nuclei (%) (1 µM, 12 h, replicate 1): 65.44%
- Population Pyknosed Nuclei (%) (1 µM, 12 h, replicate 1): 10.66%
- Population apoptotic cell (%) (1 µM, 12 h, replicate 1): 75.86%
- Population cell that influence microtubule strucutre (%) (1 µM, 12 h, replicate 1): 2.81%
- Population with increased mitochondrial mass (%) (1 µM, 12 h, replicate 1): 1.69%
- Population with membrane disruption (%) (1 µM, 12 h, replicate 1): 7.87%
- Cell count normalized to cells treated with DMSO control (1 µM, 12 h, replicate 2): 0.9215
- Cell count per well (1 µM, 12 h, replicate 2): 109
- Population Fragmented Nuclei (%) (1 µM, 12 h, replicate 2): 11.11%
- Population Healthy Nuclei (%) (1 µM, 12 h, replicate 2): 84.26%
- Population Pyknosed Nuclei (%) (1 µM, 12 h, replicate 2): 4.63%
- Population apoptotic cell (%) (1 µM, 12 h, replicate 2): 80.00%
- Population cell that influence microtubule strucutre (%) (1 µM, 12 h, replicate 2): 2.20%
- Population with increased mitochondrial mass (%) (1 µM, 12 h, replicate 2): 2.20%
- Population with membrane disruption (%) (1 µM, 12 h, replicate 2): 3.30%
- Cell count normalized to cells treated with DMSO control (1 µM, 24 h, replicate 1): 1.136
- Cell count per well (1 µM, 24 h, replicate 1): 354
- Population Fragmented Nuclei (%) (1 µM, 24 h, replicate 1): 25.72%
- Population Healthy Nuclei (%) (1 µM, 24 h, replicate 1): 65.90%
- Population Pyknosed Nuclei (%) (1 µM, 24 h, replicate 1): 8.38%
- Population apoptotic cell (%) (1 µM, 24 h, replicate 1): 82.76%
- Population cell that influence microtubule strucutre (%) (1 µM, 24 h, replicate 1): 4.39%
- Population with increased mitochondrial mass (%) (1 µM, 24 h, replicate 1): 2.63%
- Population with membrane disruption (%) (1 µM, 24 h, replicate 1): 7.02%
- Cell count normalized to cells treated with DMSO control (1 µM, 24 h, replicate 2): 0.9633
- Cell count per well (1 µM, 24 h, replicate 2): 137
- Population Fragmented Nuclei (%) (1 µM, 24 h, replicate 2): 12.50%
- Population Healthy Nuclei (%) (1 µM, 24 h, replicate 2): 81.62%
- Population Pyknosed Nuclei (%) (1 µM, 24 h, replicate 2): 5.88%
- Population apoptotic cell (%) (1 µM, 24 h, replicate 2): 87.50%
- Population cell that influence microtubule strucutre (%) (1 µM, 24 h, replicate 2): 1.80%
- Population with increased mitochondrial mass (%) (1 µM, 24 h, replicate 2): 1.80%
- Population with membrane disruption (%) (1 µM, 24 h, replicate 2): 3.60%
- Cell count normalized to cells treated with DMSO control (1 µM, 48 h, replicate 1): 1.128
- Cell count per well (1 µM, 48 h, replicate 1): 502
- Population Fragmented Nuclei (%) (1 µM, 48 h, replicate 1): 21.34%
- Population Healthy Nuclei (%) (1 µM, 48 h, replicate 1): 69.72%
- Population Pyknosed Nuclei (%) (1 µM, 48 h, replicate 1): 8.94%
- Population apoptotic cell (%) (1 µM, 48 h, replicate 1): 86.36%
- Population cell that influence microtubule strucutre (%) (1 µM, 48 h, replicate 1): 2.04%
- Population with increased mitochondrial mass (%) (1 µM, 48 h, replicate 1): 3.21%
- Population with membrane disruption (%) (1 µM, 48 h, replicate 1): 6.41%
- Cell count normalized to cells treated with DMSO control (1 µM, 48 h, replicate 2): 0.973
- Cell count per well (1 µM, 48 h, replicate 2): 201
- Population Fragmented Nuclei (%) (1 µM, 48 h, replicate 2): 6.57%
- Population Healthy Nuclei (%) (1 µM, 48 h, replicate 2): 83.33%
- Population Pyknosed Nuclei (%) (1 µM, 48 h, replicate 2): 10.10%
- Population apoptotic cell (%) (1 µM, 48 h, replicate 2): 85.00%
- Population cell that influence microtubule strucutre (%) (1 µM, 48 h, replicate 2): 1.82%
- Population with increased mitochondrial mass (%) (1 µM, 48 h, replicate 2): 2.42%
- Population with membrane disruption (%) (1 µM, 48 h, replicate 2): 4.85%
- cytotoxicity (1 μM): no cytotoxicity
- Cell count normalized to cells treated with DMSO control (10 µM, 0 h, replicate 1): 1.1102
- Cell count per well (10 µM, 0 h, replicate 1): 231
- Population Fragmented Nuclei (%) (10 µM, 0 h, replicate 1): 38.84%
- Population Healthy Nuclei (%) (10 µM, 0 h, replicate 1): 51.34%
- Population Pyknosed Nuclei (%) (10 µM, 0 h, replicate 1): 9.82%
- Population apoptotic cell (%) (10 µM, 0 h, replicate 1): 95.45%
- Population cell that influence microtubule strucutre (%) (10 µM, 0 h, replicate 1): 3.48%
- Population with increased mitochondrial mass (%) (10 µM, 0 h, replicate 1): 3.48%
- Population with membrane disruption (%) (10 µM, 0 h, replicate 1): 6.09%
- Cell count normalized to cells treated with DMSO control (10 µM, 0 h, replicate 2): 1.062
- Cell count per well (10 µM, 0 h, replicate 2): 91
- Population Fragmented Nuclei (%) (10 µM, 0 h, replicate 2): 26.19%
- Population Healthy Nuclei (%) (10 µM, 0 h, replicate 2): 64.29%
- Population Pyknosed Nuclei (%) (10 µM, 0 h, replicate 2): 9.52%
- Population apoptotic cell (%) (10 µM, 0 h, replicate 2): 100.00%
- Population cell that influence microtubule strucutre (%) (10 µM, 0 h, replicate 2): 3.70%
- Population with increased mitochondrial mass (%) (10 µM, 0 h, replicate 2): 3.70%
- Population with membrane disruption (%) (10 µM, 0 h, replicate 2): 7.41%
- Cell count normalized to cells treated with DMSO control (10 µM, 12 h, replicate 1): 1.017
- Cell count per well (10 µM, 12 h, replicate 1): 269
- Population Fragmented Nuclei (%) (10 µM, 12 h, replicate 1): 26.62%
- Population Healthy Nuclei (%) (10 µM, 12 h, replicate 1): 63.50%
- Population Pyknosed Nuclei (%) (10 µM, 12 h, replicate 1): 9.89%
- Population apoptotic cell (%) (10 µM, 12 h, replicate 1): 73.08%
- Population cell that influence microtubule strucutre (%) (10 µM, 12 h, replicate 1): 4.19%
- Population with increased mitochondrial mass (%) (10 µM, 12 h, replicate 1): 6.59%
- Population with membrane disruption (%) (10 µM, 12 h, replicate 1): 8.38%
- Cell count normalized to cells treated with DMSO control (10 µM, 12 h, replicate 2): 0.9722
- Cell count per well (10 µM, 12 h, replicate 2): 115
- Population Fragmented Nuclei (%) (10 µM, 12 h, replicate 2): 22.52%
- Population Healthy Nuclei (%) (10 µM, 12 h, replicate 2): 63.96%
- Population Pyknosed Nuclei (%) (10 µM, 12 h, replicate 2): 13.51%
- Population apoptotic cell (%) (10 µM, 12 h, replicate 2): 100.00%
- Population cell that influence microtubule strucutre (%) (10 µM, 12 h, replicate 2): 7.04%
- Population with increased mitochondrial mass (%) (10 µM, 12 h, replicate 2): 9.86%
- Population with membrane disruption (%) (10 µM, 12 h, replicate 2): 7.04%
- Cell count normalized to cells treated with DMSO control (10 µM, 24 h, replicate 1): 0.9881
- Cell count per well (10 µM, 24 h, replicate 1): 308
- Population Fragmented Nuclei (%) (10 µM, 24 h, replicate 1): 23.59%
- Population Healthy Nuclei (%) (10 µM, 24 h, replicate 1): 66.78%
- Population Pyknosed Nuclei (%) (10 µM, 24 h, replicate 1): 9.63%
- Population apoptotic cell (%) (10 µM, 24 h, replicate 1): 96.55%
- Population cell that influence microtubule strucutre (%) (10 µM, 24 h, replicate 1): 6.97%
- Population with increased mitochondrial mass (%) (10 µM, 24 h, replicate 1): 4.98%
- Population with membrane disruption (%) (10 µM, 24 h, replicate 1): 5.97%
- Cell count normalized to cells treated with DMSO control (10 µM, 24 h, replicate 2): 0.886
- Cell count per well (10 µM, 24 h, replicate 2): 126
- Population Fragmented Nuclei (%) (10 µM, 24 h, replicate 2): 18.18%
- Population Healthy Nuclei (%) (10 µM, 24 h, replicate 2): 71.90%
- Population Pyknosed Nuclei (%) (10 µM, 24 h, replicate 2): 9.92%
- Population apoptotic cell (%) (10 µM, 24 h, replicate 2): 100.00%
- Population cell that influence microtubule strucutre (%) (10 µM, 24 h, replicate 2): 6.90%
- Population with increased mitochondrial mass (%) (10 µM, 24 h, replicate 2): 6.90%
- Population with membrane disruption (%) (10 µM, 24 h, replicate 2): 10.34%
- Cell count normalized to cells treated with DMSO control (10 µM, 48 h, replicate 1): 0.9437
- Cell count per well (10 µM, 48 h, replicate 1): 420
- Population Fragmented Nuclei (%) (10 µM, 48 h, replicate 1): 19.22%
- Population Healthy Nuclei (%) (10 µM, 48 h, replicate 1): 67.40%
- Population Pyknosed Nuclei (%) (10 µM, 48 h, replicate 1): 13.38%
- Population apoptotic cell (%) (10 µM, 48 h, replicate 1): 90.91%
- Population cell that influence microtubule strucutre (%) (10 µM, 48 h, replicate 1): 3.61%
- Population with increased mitochondrial mass (%) (10 µM, 48 h, replicate 1): 3.97%
- Population with membrane disruption (%) (10 µM, 48 h, replicate 1): 5.78%
- Cell count normalized to cells treated with DMSO control (10 µM, 48 h, replicate 2): 0.7019
- Cell count per well (10 µM, 48 h, replicate 2): 145
- Population Fragmented Nuclei (%) (10 µM, 48 h, replicate 2): 21.28%
- Population Healthy Nuclei (%) (10 µM, 48 h, replicate 2): 65.96%
- Population Pyknosed Nuclei (%) (10 µM, 48 h, replicate 2): 12.77%
- Population apoptotic cell (%) (10 µM, 48 h, replicate 2): 83.33%
- Population cell that influence microtubule strucutre (%) (10 µM, 48 h, replicate 2): 7.53%
- Population with increased mitochondrial mass (%) (10 µM, 48 h, replicate 2): 7.53%
- Population with membrane disruption (%) (10 µM, 48 h, replicate 2): 15.05%
- impact on tubulin, mitochondrial mass, and cellular permeability in healthy cells (1 μM (Figure 6)): comparable to that of the 0.1% DMSO control
